# Reference: patent publication US9056891B2, “Synthetic peptide inhibitors of Wnt pathway” (The United States of America, as represented by the …, priority 2010, dated 2015)
# *1 amine or outer side, *2 acyl side, *3 side chain or, on linkers, in order; H or OH if unused. Where a SMILES comes first, the peptide text is derived from it. Bridges are numbered along the chain shown (N, C = ends). Where no end group is shown, it is not given here. [ ]: non-standard residue; d: D form. The star is where a group is joined. X1 = CCCCCCCCCCCCC(C)(N[*:1])C(=O)[*:2]; Palmitoyl = CCCCCCCCCCCCCCCC(=O)*; Aib = CC(C)(N)C(=O)O
# Legend:
# SW480 cells = experiment: Toxicity (growth inhibition) for SW-480 cells; assay type: cell-based, human; set-up: unit not given here
# Experimental: (§1) Further optimization and testing of inhibitors was performed using this cell line. Table 5 presents toxicity data for select inhibitors for 4T1 cells and human colon cancer cell line SW-480, wherein GI50 is the concentration providing 50% growth inhibition and TGI is the total growth inhibition.
# 4T1 cells = experiment: Toxicity (growth inhibition) for 4T1 cells; assay type: cell-based, mouse
# Experimental: To identify a mouse model for preclinical development of compounds, mouse cell lines were tested for (1) growth inhibition by the compounds and (2) the levels of constitutive Wnt signaling TCF-reporter activity using transfection of cell with TCF/LEF-responsive firefly luciferase construct. The data further confirmed that sensitivity to compounds correlated well with the levels of canonical Wnt signaling.
# Based on the data, mouse breast cancer cell line 4T1 was selected for in vivo testing.
# as §1
# HT-29 cells = assay type: cell-based; conditions: 48 h
# Experimental: (§2) HeLa, U3A, RKO, HCT-116, and HT-29 cells were exposed to the CT-HC-1, CT-HC-3, CT-HC-5, and CT-HC-8 inhibitors of Example 1 for 48 hours in medium containing 1% bovine fetal serum, and the resulting cell number was evaluated using a MTT assay. Each of these cell lines is relevant to the evaluation of Wnt signaling. Cervical carcinoma HeLa cells overexpress β-catenin (see, e.g., Lee et al., Int. J. Cancer, 124(2): 287-297 (2009); and Lee et al., Gynecol. Oncol., 109(2): 270-274 (2008)). β-catenin is activated in colon carcinoma RKO due to mutation in CDX2 (see, e.g., Dang et al., Oncogene, 20(35): 4884-4890 (2001)). Colon adenocarcinoma HCT116 has elevated mutated β-catenin; however, it was found in the past to be resistant to down regulation of β-catenin (see, e.g., Chan et al., Proc. Natl. Acad. Sci. USA, 99(12): 8265-8270 (2002); and Handeli et al., Mol. Cancer Ther., 7(3): 521-529 (2008)). Colon carcinoma HT-29 has truncated adenomatous polyposis coli (APC) protein, which is a common cause of canonical Wnt pathway activation in colon malignancies. Fibrosarcoma U3A cells are STAT1-negative and have uncharacterized status of Wnt pathway.
# (§3) The ability of CT-HC-1 to inhibit growth and to kill cancer cells at different concentrations was further investigated in HeLa, U3A, RKO, HCT-116, and HT-29 cells. The cells were stained with Promega Non-Radioactive Cell Proliferation Assay Kit (MTT) according to the manufacture's protocol. The absorbance of the wells was determined at 544 nm by a FLUOstar/POLARstar Galaxy (BMG Lab Technologies GmbH) Microplate Reader. The assays were performed on control (C) and test (T) cells. Untreated cells were used as a control. Cellular responses were calculated from the data using the following formula: 100×[(T−T0)/(C−T0)] for T>T0 and 100×[(T−T0)/T0] for T<T0. T0 corresponds to cell density at the time of drug addition.
# HeLa cells = assay type: cell-based; conditions: 48 h
# Experimental: as §2, §3
# RKO cells = assay type: cell-based; conditions: 48 h
# Experimental: as §2, §3
# U3A cells = assay type: cell-based; conditions: 48 h
# Experimental: as §2, §3
# HCT-116 cells = assay type: cell-based, human; conditions: 48 h
# Experimental: as §2, §3
# [1] = system: RKO, HT-29, HCT-116, SW-480, and SW-620 cells; experiment: Cell viability of colon cancer cells (FIGS. 2A-C); assay type: cell-based; conditions: increasing concentrations, HT-29, HCT-116, SW-480, SW-620
# Experimental: The concentration (μM) of the peptide inhibitor is indicated on the x-axis and the percent viability is indicated on the y-axis.
# A similar experiment was performed using RKO, HT-29, HCT-116, SW-480, and SW-620 cells. Colorectal adenocarcinoma SW-480 and SW-620 cells have truncated APC protein, which—as discussed above—is a common cause of canonical Wnt pathway activation in colon malignancies.
# 4T1 breast cancer = 4T1 breast cancer mouse model; assay type: in vivo; conditions: 2 mg/kg subcutaneously three times a week, alone, after three injections
# Experimental: CT-HC-11 has been tested in 4T1 breast cancer mouse model at two doses: 10 and 2 mg/kg injected subcutaneously three times a week alone or in combination with weekly gemcitabine (75 mg/kg).
# [2] = system: HeLa, U3A, RKO, HCT-116, and HT-29 cells; experiment: MTT cell number versus concentration (FIG. 1); assay type: cell-based; conditions: HCT-116, HT-29
# Experimental: as §3
# [3] = system: Wnt pathway (TOPflash reporter transcription); experiment: TOPflash dual luciferase reporter assay in primary metanephric mesenchyme (MM) cells; assay type: cell-based; conditions: 10 μM, 30 min pre-treatment, 24 hours
# Experimental: Primary metanephric mesenchyme (MM) cells were transfected with the Amaxa Nucleofector 96-well Shuttle System (Lonza Group Ltd, Basel, Switzerland). Briefly, 1×10^6 cells per transfection were resuspended in 20 μl of 96-well Nucleofector solutions. TOPflash luciferase plasmid (1 μg) and 0.1 μg pRL-TK-renilla plasmids (Promega, Madison, Wis., USA) were mixed with cell suspensions and transferred to the well of a 96-well Nucleocuvette module. Nucleofections were performed according to manufacturer's instructions using program DN-100.
# MM cells were pre-treated with or without CT-HC-1 (10 μM) for 30 min, and then exposed to GSK3 inhibitor BIO (500 nM) or Wnt3a conditioned medium (50%) (Wnt3aCM as described in Willert et al., Nature, 423: 448-452 (2003)) for 24 hours. Cells were lysed and assayed for reporter activity using a Dual luciferase assay system (Promega) and a Monolight 3010 Luminometer (Pharmagen, San Diego, Calif., USA).
# β-catenin = experiment: Levels of total β-catenin in MM cells; assay type: cell-based
# Experimental: Cells were also evaluated for levels of total β-catenin. In these studies, β-catenin was degraded within 3 hours of treatment with CT-HC-1.
# [4] = system: MM cells (tubule formation); experiment: MM cell differentiation, co-cultivation with embryonic spinal cord inductor; assay type: cell-based; conditions: MM cells co-cultivated with embryonic spinal cord
# Source text: (§4) To determine if the loss of β-catenin affects differentiation, MM cells were co-cultivated with inductor, embryonic spinal cord, and treated with CT-HC-1. In these cultures, tubule formation was unaffected. This finding was supported by semi-quantitative RT-PCR analysis of BIO-induced MM cells in which levels of epithelial markers Lim-1 and E-cadherin were unaltered with CT-HC-1 treatment. […] This observation is consistent with reports describing an antagonistic relationship between canonical and non-canonical Wnt mechanisms (see, e.g., Park et al., Development, 132: 2533-2539 (2007); and Schmidt-Ott et al., Development, 132: 3177-3190 (2007).
# [5] = system: Lim-1, E-cadherin, Axin-2 expression; experiment: Semi-quantitative RT-PCR of marker expression in MM cells; assay type: cell-based
# Source text: as §4
# [6] = cells exposed only to peptide, no inductive ligand
compound,measurement,setting,value
Pal-NKPQDYKKRLSVELTSSLFR [CT-HC-2],SW480 cells TGI (total growth inhibition),SW480 cells,>5
same,4T1 cells TGI (total growth inhibition),4T1 cells,> 5 µM
"CCCCCCCCCCCCCCCC(=O)NCCCC[C@H](N)C(=O)N[C@@H](Cc1ccc(O)cc1)C(=O)N[C@@H](CCCCN)C(=O)N[C@@H](CCCCN)C(=O)N[C@@H](CCCNC(=N)N)C(=O)N[C@@H](CC(C)C)C(=O)N[C@@H](CO)C(=O)N[C@H](C(=O)N[C@@H](CCC(N)=O)C(=O)N[C@@H](CC(C)C)C(=O)N[C@H](C(=O)N[C@@H](CO)C(=O)N[C@@H](CO)C(=O)N[C@@H](CC(C)C)C(=O)N[C@@H](Cc1ccccc1)C(=O)N[C@@H](CCCNC(=N)N)C(=O)O)[C@@H](C)O)C(C)C [CT-HC-3, Pal-ε-KYKKRLSVQLTSSLFR] (H-K(Palmitoyl)YKKRLSVQLTSSLFR-OH; N-terminus and C-terminus assumed)",GI50,HT-29 cells,2.8 ± 0.1 µM
same,GI50,HeLa cells,0.8 ± 0.08 µM
same,GI50,RKO cells,1.8 ± 0.15 µM
same,GI50,U3A cells,0.65 ± 0.045 µM
same,GI50,HCT-116 cells,4 ± 0.3 µM
same,SW480 cells TGI (total growth inhibition),SW480 cells,0.5
same,4T1 cells TGI (total growth inhibition),4T1 cells,> 5 µM
same,cell viability,[1],decreased viability
Pal-Aib-TRFLSSTLQVSLRKK-NH2 [CT-HC-11],4T1 cells TGI (total growth inhibition),4T1 cells,3 µM
same,tumor volume,4T1 breast cancer,significant reduction in tumor volume
"CCCCCCCCCCCCCCCC(=O)NCCCC[C@H](N)C(=O)N[C@@H](Cc1ccc(O)cc1)C(=O)N[C@@H](CCCCN)C(=O)N[C@@H](CCCCN)C(=O)N[C@@H](CCCNC(=N)N)C(=O)N[C@@H](CC(C)C)C(=O)N[C@@H](CO)C(=O)N[C@H](C(=O)N[C@@H](CCC(=O)O)C(=O)N[C@@H](CC(C)C)C(=O)N[C@H](C(=O)N[C@@H](CO)C(=O)N[C@@H](CO)C(=O)N[C@@H](CC(C)C)C(=O)N[C@@H](Cc1ccccc1)C(=O)N[C@@H](CCCNC(=N)N)C(=O)O)[C@@H](C)O)C(C)C [CT-HC-1, Pal-ε-KYKKRLSVELTSSLFR] (H-K(Palmitoyl)YKKRLSVELTSSLFR-OH; N-terminus and C-terminus assumed)",GI50,HT-29 cells,1.4 ± 0.05 µM
same,GI50,HeLa cells,0.63 ± 0.025 µM
same,GI50,RKO cells,1.3 ± 0.05 µM
same,GI50,U3A cells,0.6 ± 0.04 µM
same,GI50,HCT-116 cells,3.4 ± 0.25 µM
same,SW480 cells TGI (total growth inhibition),SW480 cells,5
same,4T1 cells TGI (total growth inhibition),4T1 cells,> 5 µM
same,cell number as compared to untreated cells,[2],decreased cell numbers in a concentration dependent manner
same,cell viability,[1],decreased viability
same,BIO-induced transcription (TOPflash reporter),[3]; BIO 500 nM,completely blocked
same,Wnt3aCM-induced transcription (TOPflash reporter),[3]; Wnt3a conditioned medium 50%,completely blocked
same,time of treatment within which β-catenin was degraded,β-catenin,≤ 3 h
same,β-catenin levels 24 hours after treatment,β-catenin; 24 hours,had not recovered
same,β-catenin levels in presence of proteasomal inhibitor MG132,β-catenin; with MG132,stabilized
same,tubule formation,[4],unaffected
same,levels of epithelial markers Lim-1 and E-cadherin,[5]; BIO-induced MM cells,unaltered
same,Axin-2 expression,[5]; [6],decrease
same,expression of Lim-1 and E-cadherin,[5]; [6],enhanced expression
Cap-TRFLSSTLQVSLRKK-NH2 [CT-HC-22],4T1 cells TGI (total growth inhibition),4T1 cells,> 5 µM
Pal-RFLSSTLQVSLRKK-NH2 [CT-HC-20],4T1 cells TGI (total growth inhibition),4T1 cells,> 5 µM
Pal-Aib-YKKRLSVELTSSLFR (Palmitoyl-[Aib]YKKRLSVELTSSLFR) [CT-HC-13],4T1 cells TGI (total growth inhibition),4T1 cells,> 5 µM
Pal-TRFLSSTLEVSLRKKY-NH2 [CT-HC-10],SW480 cells TGI (total growth inhibition),SW480 cells,2.2
same,4T1 cells TGI (total growth inhibition),4T1 cells,2 µM
Pal-TRFLSSTLQVSLRKK-NH2 [CT-HC-15],4T1 cells TGI (total growth inhibition),4T1 cells,3.6 µM
"Ac-YKKRLS+ELT+SLFR (Ac-YKKRLSXELTXSLFR; staple 7-11; not fully specified (residues 7, 11); printed as Ac-YKKRLS+ELT+SLFR) [CT-HC-9]",SW480 cells TGI (total growth inhibition),SW480 cells,>5
same,4T1 cells TGI (total growth inhibition),4T1 cells,> 5 µM
Pal-Aib-YKKRLSVQLTSSLFR (Palmitoyl-[Aib]YKKRLSVQLTSSLFR) [CT-HC-19],4T1 cells TGI (total growth inhibition),4T1 cells,> 5 µM
Pal-YKKRLSVELTSSLFRTEPMAW (Palmitoyl-YKKRLSVELTSSLFRTEPMAW) [CT-HC-16],SW480 cells TGI (total growth inhibition),SW480 cells,>5
same,4T1 cells TGI (total growth inhibition),4T1 cells,> 5 µM
Lau-TRFLSSTLQVSLRKK-NH2 [CT-HC-23],4T1 cells TGI (total growth inhibition),4T1 cells,3.5 µM
"CCCCCCCCCCCCC(C)(N)C(=O)N[C@@H](Cc1ccc(O)cc1)C(=O)N[C@@H](CCCCN)C(=O)N[C@@H](CCCCN)C(=O)N[C@@H](CCCNC(=N)N)C(=O)N[C@@H](CC(C)C)C(=O)N[C@@H](CO)C(=O)N[C@H](C(=O)N[C@@H](CCC(=O)O)C(=O)N[C@@H](CC(C)C)C(=O)N[C@H](C(=O)N[C@@H](CO)C(=O)N[C@@H](CO)C(=O)N[C@@H](CC(C)C)C(=O)N[C@@H](Cc1ccccc1)C(=O)N[C@@H](CCCNC(=N)N)C(=O)O)[C@@H](C)O)C(C)C (stereo partly shown) [CT-HC-8, Doa-YKKRLSVELTSSLFR] (H-[X1]YKKRLSVELTSSLFR-OH; N-terminus and C-terminus assumed)",GI50,HT-29 cells,> 5 µM
same,GI50,HeLa cells,3.2 ± 0.4 µM
same,GI50,RKO cells,> 5 µM
same,GI50,U3A cells,> 5 µM
same,GI50,HCT-116 cells,> 5 µM
same,SW480 cells TGI (total growth inhibition),SW480 cells,0.4
same,4T1 cells TGI (total growth inhibition),4T1 cells,> 5 µM
same,cell viability,[1],decreased viability
Pal-YKKRLSVELTSSLFR (Palmitoyl-YKKRLSVELTSSLFR) [CT-HC-12],SW480 cells TGI (total growth inhibition),SW480 cells,>5
same,4T1 cells TGI (total growth inhibition),4T1 cells,> 5 µM
